Tests used:
Assay type in all cases: physicochemical
[1] = pKa measurement (Sirius T3, UV metric method); conditions: MeOH as solvent, Yasuda-Shedlovsky extrapolation, ionic strength 0.176M, 28.9° C., to be taken as reference (effective range pH 2-12)
Description: pKa. The pKa was measured by a Sirius pKa log P/D tester (model: T3) with a UV detector (UV metric method) using MeOH as solvent.
In addition, the pKa value of Compound (1) starting material was measured to be 1.68 by a Sirius pKa log P/D tester (model: T3) with a UV detector (UV metric method) using MeOH as solvent. The pKa value should be taken as reference because the effective pH range of UV metric method is pH 2-12.

[2] = Solid form screening; conditions: 96 solid form screening experiments
Description: A total of 96 solid form screening experiments were performed using different crystallization or solid transformation methods.

[3] = Cohesion evaluation
Description: Different options were explored to improve the cohesion property of the tablet, for example, by change of lactose and mannitol grades (standard grade in place of Spray Dried grade), using anhydrous lactose in place of monohydrate lactose Spray-Dried, using different ratios of lactose/mannitol, or using pregelatinized corn starch instead of mannitol, but only a decrease of tablet cohesion was observed.

pKa [1]: 1.68
crystal forms observed from screening [2]: Only one crystal form
cohesion property of the drug substance [3]: very low cohesion property
Compound: CC(C)(C(=O)N1CCOc2c(C#N)cncc2C1)C(F)F [Compound 1, 4-(3,3-difluoro-2,2-dimethyl-propanoyl)-3,5-dihydro-2H-pyrido[3,4-f][1,4]oxazepine-9-carbonitrile]

— patent US20240299412A1, “DRUG FORMULATIONS OF 4-(3,3-DIFLUORO-2,2-DIMETHYL-PROPANOYL) -3,5-DIHYDRO-2H-PYRIDO[3,4-f][1,4]OXAZEPINE-9-CARBONITRILE” (Genzyme Corporation, priority 2023, published 2024)
